Results on one molecule are retold here after patent US12649980B2, “Three-dimensional surface for protein and small molecule microarrays” (The Johns Hopkins University, priority 2019, dated 2026).

In one series the test system is HCC1954 xenograft. Kind of series: HCC1954 breast cancer xenograft in nude mice. Type of series: in vivo. Here is the method: Given that RgA inhibited multiple isoforms of GLUTs, including GLUT1, 3, and 4, it raised the question of whether animals could tolerate RgA. As breast cancer cell lines are more sensitive to RgA than other cell lines (FIG. 6A and Table 3), the anti-breast cancer activity of RgA in vivo was assessed. Two breast cancer cell lines were selected for the xenograft experiment-MCF-7, an ER+, HER2− line, and HCC1954, an ER−, HER2+ breast line. NSG mice bearing MCF-7 tumors were given daily vehicle or RgA at a dose of 2 mg/kg for […].
All animal studies were conducted in compliance with all relevant ethical regulations set forth by the Johns Hopkins University Animal Care and Use Committee (ACUC). Female mice aged 4-6 weeks and weighing 18-22 g were maintained in a pathogen-free facility at Johns Hopkins Medical Institutions and cared for according to National Institutes of Health guidelines and under a protocol approved by the Johns Hopkins University Animal Care Committee. For the xenograft experiment of MCF-7, 17β-estradiol pellets (0.72 mg per pellet, 60-day release, Innovative Research of America, FL) were implanted at 5 days prior to tumor cell injection. […] The tumor volume was measured periodically using a Vernier caliper and calculated according to the modified ellipsoid formula: tumor volume (mm^3)=(short axis)^2×(long axis)×π/6. […]

For series [1], the system named is MCF-7. Kind of series: Alamar blue cell proliferation assay, MCF-7. Type of series: cell-based, human. To be noted: MCF-7, 72 h; read-out: IC50 Assay B (Alamar blue cell proliferation). Here is the method: The effects of RgA on cell growth, survival, and cell death was then determined. […] Treatment with 5 μM of RgA caused an increase in G1 phase by approximately 23% in comparison to control and approximately 7% and 17% decreases in cells in S and G2/M phases, respectively. The induction in G1 phase cell cycle arrest by RgA is dose-dependent (FIG. 5A, FIG. 16). […] Jones and Thompson, Genes Dev. 2009, 23, 537-548. […] The IC50 values of RgA against several human cancer cell lines also was determined using the alamar blue cell proliferation assay.
Cells were seeded into a 96-well plate (Costar) in 180 μL culture media. After an overnight recovery, drugs were added and incubated for 72 h. After drug incubation, cells were added with 20 μL of alamar blue reagent and the plates were incubated at 37° C. for 6 h before reading the fluorescence (544 nm Ex/590 nm Em) with a plate reader. GraphPad Prism (v4.03) software was used to determine IC50 values using a four parameter logistic regression.

The subject of another series is AMPK and mTOR activity. Kind of series: Western blot of AMPK and mTOR (S6K) activity in MCF-7 cells. The conditions noted are these: MCF-7, time- and dose-dependent. Format: cell-based, human. From the text: The increase in AMP/ATP ratio, in turn, is expected to activate AMPK, leading to the inhibition of the mTOR signaling pathway. Liu et al., Mol. Cancer Ther. 2012, 11, 1672-1682; Head et al., ACS Chem. Biol. 2017, 12, 174-182. The effect of RgA on AMPK and mTOR activity in MCF-7 cells was therefore determined.
For western blot analysis, cells were harvested and lysed by RIPA buffer plus protease inhibitor. Cell lysates or samples from pull-down experiment were subjected to SDS/PAGE and then transferred to a nitrocellulose membrane. Membranes were first blocked in 5% (wt/vol) BSA in Tris-buffered saline plus 0.1% Tween 20 (TBST) at room temperature for 30 min and incubated with primary antibodies at 4° C. for overnight. Membranes were then washed three times with TBST and incubated with secondary antibodies at room temperature for another 1 h. Membranes were washed with TBST three times again and incubated with ECL substrate for 1 min at room temperature. Pictures were captured using a GeneSys Image Station.

Series [2] has as its system MCF-7. Kind of series: [3H]-2DG uptake assay in MCF-7 cells. Type of series: cell-based, human. Here is the method:
(§1) Hay, Nat. Rev. […] To determine whether RgA could inhibit glucose uptake in cancer cell lines in addition to A549, the impact of RgA on [3H]-2DG uptake in six other cancer cell lines, including HCC1954, MCF-7, PANC10.05, Jurkat T, HeLa, and RKO was measured (FIG. 3A, Table 3).
(§2) The inhibitory activity of compounds on glucose transport was analyzed by measuring the cell uptake of [3H]-2DG as previously described. Ulanovskaya et al., Chem. Biol. 2011, 18, 222-230. Briefly, cells were washed twice and incubated in low-glucose medium for 10 min. Cells were added drugs and incubated for another 10 min before adding [3H]-2DG. After 10 min incubation with [3H]-2DG, cells were washed twice and lysed with 0.2 N NaOH plus 0.2% SDS. The cell lysate was transferred to a new tube containing 1 mL of optiphase supermix. Glucose uptake was quantified with a scintillation counter.

For another series, the system named is RKO. Kind of series: [3H]-2DG uptake assay in RKO cells. Type of series: cell-based, human. Here is the method:
as §1, §2

A further series has as its target FKBP25 (Homo sapiens, UniProt Q00688). Kind of series: peptidyl prolyl cis-trans isomerase activity inhibition, FKBP25. Format: biochemical. The conditions noted are these: inhibition of prolyl isomerase activity.
Another series deals with FKBP51 (Homo sapiens, UniProt Q13451). Kind of series: peptidyl prolyl cis-trans isomerase activity inhibition, FKBP51. Type of series: biochemical. To be noted: inhibition of prolyl isomerase activity.
In the next series the test system is Jurkat T. Kind of series: [3H]-2DG uptake assay in Jurkat T cells. Type of series: cell-based, human. Here is the method:
as §1, §2

Chain of FKBP51 (Q13451 whole entry): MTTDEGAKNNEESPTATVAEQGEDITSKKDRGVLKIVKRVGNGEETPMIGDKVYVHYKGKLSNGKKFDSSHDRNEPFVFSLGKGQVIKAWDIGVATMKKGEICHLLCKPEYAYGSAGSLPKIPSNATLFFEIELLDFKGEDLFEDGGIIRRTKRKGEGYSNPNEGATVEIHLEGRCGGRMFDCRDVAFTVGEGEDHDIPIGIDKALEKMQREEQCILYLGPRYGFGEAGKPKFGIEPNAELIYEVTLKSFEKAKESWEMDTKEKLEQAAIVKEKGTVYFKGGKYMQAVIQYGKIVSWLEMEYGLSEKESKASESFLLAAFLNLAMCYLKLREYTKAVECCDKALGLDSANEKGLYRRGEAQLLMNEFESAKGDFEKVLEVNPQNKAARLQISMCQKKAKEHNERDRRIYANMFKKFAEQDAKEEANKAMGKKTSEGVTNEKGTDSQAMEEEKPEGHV
Chain of FKBP25 (Q00688 whole entry, species assumed): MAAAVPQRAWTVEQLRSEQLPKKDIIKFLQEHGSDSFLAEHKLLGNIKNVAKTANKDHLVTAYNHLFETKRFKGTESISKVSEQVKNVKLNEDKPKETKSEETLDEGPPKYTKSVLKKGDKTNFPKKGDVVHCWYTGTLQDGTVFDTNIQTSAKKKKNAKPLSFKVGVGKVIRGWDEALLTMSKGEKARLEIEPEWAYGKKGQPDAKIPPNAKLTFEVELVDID

For `CCC(C)C1C(=O)NCC(=O)N(C)CCC=CC(=O)OCC(C)(C)C(=O)C(=O)N2CCCCC2C(=O)OC(CCc2ccc(OC)c(OC)c2)c2cccc(c2)NC(=O)CCC(=O)N(C)C(CC(C)C)C(=O)NC(Cc2ccccc2)C(=O)N1C` (centres unmarked) [JW11-D2, Rapaglutin A], in the series on HCC1954 xenograft (HCC1954 in nude mice, 2 mg/kg intraperitoneally daily, vehicle 26.14), the “tumor volume index on day 38” value is 12.97. Further, the “weight loss and signs of adverse effects” value in the series with HCC1954 xenograft (HCC1954 xenograft mice, 2 mg/kg daily) is listed as “no significant weight loss or any signs of adverse effects”. Besides, the IC50 was found to be 87.3 nM in the series on MCF-7 [1], 3.3 nM in the series with MCF-7 [2] (MCF-7), 10.8 nM with RKO and 10.1 nM with Jurkat T. For the same molecule, the AMPK activity result in the series on AMPK and mTOR activity was “activated AMPK”. Moreover, in the series with AMPK and mTOR activity, the mTOR activity result is “inhibited mTOR activity”. In addition, the “effect of high concentration of FK506 and rapamycin on the inhibitory activity of RgA” value with MCF-7 [2] (MCF-7, 100 nM RgA, 20 μM FK506, 20 μM Rapamycin) is recorded as “negligible effect”. Besides, the Ki was greater than 5000 nM at FKBP25 and 46 ± 10 nM on FKBP51.
